# Literature values, collected in patent US20250205171A1, “TRANSDERMAL DELIVERY SYSTEMS FOR CERTAIN FACTOR Xa INHIBITORS AND RELATED METHODS FOR THEIR PREPARATION AND USE” (ARx, LLC, priority 2022, published 2025).
row,SMILES,water solubility
1,CO[C@@H]1C[C@H](C(=O)Nc2ccc(-n3ccccc3=O)cc2F)N(C(=O)Nc2ccc(Cl)cc2)C1 [eribaxaban],about 0.00717 mg/mL
2,COc1ccc(NC(=O)c2ccc(C(=N)N(C)C)cc2)c(C(=O)Nc2ccc(Cl)cn2)c1 [betrixaban],2500 to 2700 µg/mL
3,COc1ccc(-n2nc(C(N)=O)c3c2C(=O)N(c2ccc(N4CCCCC4=O)cc2)CC3)cc1 [apixaban],about 0.11 mg/mL
4,O=C(NC[C@H]1CN(c2ccc(N3CCOCC3=O)cc2)C(=O)O1)c1ccc(Cl)s1 [rivaroxaban],about 0.01 mg/mL
5,CO[C@H]1O[C@H](COS(=O)(=O)O)[C@@H](O[C@@H]2O[C@@H](C(=O)O)[C@@H](O[C@H]3O[C@H](COS(=O)(=O)O)[C@@H](O[C@@H]4O[C@H](C(=O)O)[C@@H](O[C@H]5O[C@H](COS(=O)(=O)O)[C@@H](O)[C@H](O)[C@H]5NS(=O)(=O)O)[C@H](O)[C@H]4O)[C@H](OS(=O)(=O)O)[C@H]3NS(=O)(=O)O)[C@H](O)[C@H]2OS(=O)(=O)O)[C@H](O)[C@H]1NS(=O)(=O)O [fondaparinux],about 7.91 mg/mL
6,O=C([C@H](O)CS(=O)(=O)c1ccc2cc(Cl)ccc2c1)N1CCC(N2CCCNC2=O)CC1 [letaxaban],about 0.217 mg/mL

# Next, values leading:
row,water solubility,SMILES
1,about 0.0088 mg/mL,COC(=O)[C@H](Cc1cccc(C(=N)N)c1)[C@@H](C)NC(=O)c1ccc(-c2cc[n+]([O-])cc2)cc1 [otamixaban]
2,about 0.093 mg/mL,CN1CCc2nc(C(=O)N[C@@H]3C[C@@H](C(=O)N(C)C)CC[C@@H]3NC(=O)C(=O)Nc3ccc(Cl)cn3)sc2C1 [edoxaban]
3,about 0.0048 mg/mL,COc1ccc(C(=O)Nc2cccc(O)c2NC(=O)c2ccc(N3CCCN(C)CC3)cc2)cc1 [darexaban]
